Reference: US20150218212A1, “FLUORINATED EPOXYKETONE-BASED TETRAPEPTIDE COMPOUNDS AND USES THEREOF AS PROTEASOME INHIBITORS” (FLUORINOV PHARMA INC., priority 2012, published 2015)

Assays:
Format in all cases: cell-based, human
HS 578T = assay: NCI screening panel, HS 578T (Breast Cancer)
Experimental: (§1) Representative compounds of Formula I were screened using the National Cancer Institute (NCI) screening panel, which consists of a panel of human tumor cell lines, representing leukemia, melanoma, and cancers of the lung, colon, ovary, breast, prostate and renal system.
(§2) After 24 h, two plates of each cell line are fixed in situ with TCA, to represent a measurement of the cell population for each cell line at the time of drug addition (Tz). Experimental drugs are solubilised in dimethyl sulfoxide at 400-fold the desired final maximum test concentration and stored frozen prior to use. At the time of drug addition, an aliquot of frozen concentrate is thawed and diluted to twice the desired final maximum test concentration with complete medium containing 50 μg/mL gentamicin. Additional four, 10-fold or ½ log serial dilutions are made to provide a total of five drug concentrations plus control. Aliquots of 100 μl of these different drug dilutions are added to the appropriate microtiter wells already containing 100 μl of medium, resulting in the required final drug concentrations.
(§3) Following drug addition, the plates are incubated for an additional 48 h at 37° C., 5% CO2, 95% air, and 100% relative humidity. For adherent cells, the assay is terminated by the addition of cold TCA (trichloroacetic acid). Cells are fixed in situ by the gentle addition of 50 μl of cold 50% (w/v) TCA (final concentration, 10% TCA) and incubated for 60 minutes at 4° C. The supernatant is discarded, and the plates are washed five times with tap water and air dried. Sulforhodamine B (SRB) solution (100 μl) at 0.4% (w/v) in 1% acetic acid is added to each well, and plates are incubated for 10 minutes at room temperature. After staining, unbound dye is removed by washing five times with 1% acetic acid and the plates are air dried. Bound stain is subsequently solubilised with 10 mM trizma base, and the absorbance is read on an automated plate reader at a wavelength of 515 nm. For suspension cells, the methodology is the same except that the assay is terminated by fixing settled cells at the bottom of the wells by gently adding 50 μl of 80% TCA (final concentration, 16% TCA). Using the seven absorbance measurements [time zero, (Tz), control growth, (C), and test growth in the presence of drug at the five concentration levels (Ti)], the percentage growth is calculated at each of the drug concentrations levels. Percentage growth inhibition is calculated as: [(Ti−Tz)/(C−Tz)]×100 for concentrations for which Ti>/=Tz and [(Ti−Tz)/Tz]×100 for concentrations for which Ti<Tz.
(§4) Three dose response parameters are calculated for each experimental agent. Growth inhibition of 50% (GI50) is calculated from [(Ti−Tz)/(C−Tz)]×100=50, which is the drug concentration resulting in a 50% reduction in the net protein increase (as measured by SRB staining) in control cells during the drug incubation. The drug concentration resulting in total growth inhibition (TGI) is calculated from Ti=Tz. The LC50 (concentration of drug resulting in a 50% reduction in the measured protein at the end of the drug treatment as compared to that at the beginning) indicating a net loss of cells following treatment is calculated from [(Ti−Tz)/Tz]×100=−50. Values are calculated for each of these three parameters if the level of activity is reached. However, if the effect is not reached or is exceeded, the value for that parameter is expressed as greater or less than the maximum or minimum concentration tested.

DU-145 = assay: NCI screening panel, DU-145 (Prostate Cancer)
Experimental: as §1, §2, §3, §4

K-562 = assay: NCI screening panel, K-562 (Leukemia)
Experimental: as §1, §2, §3, §4

NCI/ADR-RES = assay: NCI screening panel, NCI/ADR-RES (Ovarian Cancer)
Experimental: as §1, §2, §3, §4

MDA-MB-435 = assay: NCI screening panel, MDA-MB-435 (Melanoma)
Experimental: as §1, §2, §3, §4

OVCAR-4 = assay: NCI screening panel, OVCAR-4 (Ovarian Cancer)
Experimental: as §1, §2, §3, §4

ACHN = assay: NCI screening panel, ACHN (Renal Cancer)
Experimental: as §1, §2, §3, §4

SNB-75 = assay: NCI screening panel, SNB-75 (CNS Cancer)
Experimental: as §1, §2, §3, §4

NCI-H226 = assay: NCI screening panel, NCI-H226 (Non-Small Cell Lung Cancer)
Experimental: as §1, §2, §3, §4

UO-31 = assay: NCI screening panel, UO-31 (Renal Cancer)
Experimental: as §1, §2, §3, §4

SK-MEL-5 = assay: NCI screening panel, SK-MEL-5 (Melanoma)
Experimental: as §1, §2, §3, §4

OVCAR-5 = assay: NCI screening panel, OVCAR-5 (Ovarian Cancer)
Experimental: as §1, §2, §3, §4

KM12 = assay: NCI screening panel, KM12 (Colon Cancer)
Experimental: as §1, §2, §3, §4

| Compound | Log10GI50 (HS 578T) | Log10LC50 (HS 578T) | Log10TGI50 (HS 578T) | Log10GI50 (DU-145) | Log10LC50 (DU-145) | Log10TGI50 (DU-145) | Log10GI50 (K-562) | Log10TGI50 (K-562) | Log10GI50 (NCI/ADR-RES) | Log10LC50 (NCI/ADR-RES) | Log10TGI50 (NCI/ADR-RES) | Log10GI50 (MDA-MB-435) | Log10LC50 (MDA-MB-435) | Log10TGI50 (MDA-MB-435) | Log10GI50 (OVCAR-4) | Log10LC50 (OVCAR-4) | Log10TGI50 (OVCAR-4) | Log10GI50 (ACHN) | Log10LC50 (ACHN) | Log10TGI50 (ACHN) | further results |
| --- | --- | --- | --- | --- | --- | --- | --- | --- | --- | --- | --- | --- | --- | --- | --- | --- | --- | --- | --- | --- | --- |
| CC(C)C[C@H](NC(=O)[C@H](COC(F)F)NC(=O)CN1CCOCC1)C(=O)N[C@@H](COC(F)F)C(=O)N[C@@H](Cc1ccccc1)C(=O)[C@@]1(C)CO1 [Example 4, (2S)-N-[(1S)-2-[[(1S)-1-benzyl-2-[(2R)-2-methyloxiran-2-yl]-2-oxo-ethyl]amino]-1-(difluoromethoxymethyl)-2-oxo-ethyl]-2-[[(2S)-3-(difluoromethoxy)-2-[(2-mor-pholinoacetyl)amino]propanoyl]amino]-4 methyl-pentanamide] | −7.71 | >−4.00 | −7.01 | −7.19 | >−4.00 | −4.91 | −7.26 | >−4.00 | −5.19 | >−4.00 | >−4.00 | −7.79 | −7.09 | −7.44 | −7.43 | >−4.00 | −6.34 | −6.32 | >−4.00 | >−4.00 | Log10LC50 (K-562): >−4.00; Log10GI50 (SNB-75): −7.70; Log10LC50 (SNB-75): −6.25; Log10TGI50 (SNB-75): −7.25; Log10GI50 (NCI-H226): −7.66; Log10LC50 (NCI-H226): −6.57; Log10TGI50 (NCI-H226): −7.30; Log10GI50 (UO-31): −5.77; Log10LC50 (UO-31): −4.22; Log10TGI50 (UO-31): −5.24; Log10GI50 (SK-MEL-5): −7.33; Log10LC50 (SK-MEL-5): −5.71; Log10TGI50 (SK-MEL-5): −6.60; Log10GI50 (OVCAR-5): −7.29; Log10LC50 (OVCAR-5): >−4.00; Log10TGI50 (OVCAR-5): −6.07; Log10GI50 (KM12): −7.70; Log10LC50 (KM12): −6.44; Log10TGI50 (KM12): −7.29 |
| CC(C)C[C@H](NC(=O)[C@H](COC(F)F)NC(=O)[C@H](COC(F)F)NC(=O)[C@H](COC(F)F)NC(=O)CN1CCOCC1)C(=O)[C@@]1(C)CO1 [Example 17, (2S)-3-(difluoromethoxy)-N-[(1S)-1-(difluoromethoxymethyl)-2-[[(1S)-1-(difluoro-methoxymethyl)-2-[[(1S)-3-methyl-1-[(2R)-2-methyloxirane-2-carbonyl]butyl]amino]-2-oxo-ethyl]amino]-2-oxo-ethyl]-2-[(2-mor-pholinoacetyl)amino]-propanamide] | −7.15 | >−4.00 | −5.27 | −7.07 | >−4.00 | −4.84 | −6.77 | >−4.00 | −4.50 | >−4.00 | >−4.00 | −7.42 | −6.29 | −6.81 | −7.23 | >−4.00 | −4.55 | −5.55 | >−4.00 | >−4.00 | Log10GI50 (SNB-75): −7.15; Log10LC50 (SNB-75): >−4.00; Log10TGI50 (SNB-75): −6.39; Log10GI50 (NCI-H226): −7.15; Log10LC50 (NCI-H226): −6.14; Log10TGI50 (NCI-H226): −6.61; Log10GI50 (UO-31): −5.40; Log10LC50 (UO-31): −4.00; Log10TGI50 (UO-31): −4.65; Log10GI50 (SK-MEL-5): −7.10; Log10LC50 (SK-MEL-5): −6.01; Log10TGI50 (SK-MEL-5): −6.53; Log10GI50 (OVCAR-5): −6.55; Log10LC50 (OVCAR-5): >−4.00; Log10TGI50 (OVCAR-5): −5.71; Log10GI50 (KM12): −7.34; Log10LC50 (KM12): −6.24; Log10TGI50 (KM12): −6.73 |
| CC(C)C[C@H](NC(=O)[C@H](COC(F)F)NC(=O)CN1CCOCC1)C(=O)N[C@@H](COC(F)F)C(=O)N[C@@H](CC(C)C)C(=O)[C@@]1(C)CO1 [Example 1, (2S)—N-[(1S)-1-(difluoromethoxymethyl)-2-[[(1S)-3-methyl-1-[(2R)-2-methyloxirane-2-carbonyl]butyl]amino]-2-oxo-ethyl]-2-[[(2S)-3-(difluoromethoxy)-2-[(2-morpholinoacetyl)amino]propanoyl]amino]-4-methyl-pentanamide] | −7.72 | >−4.00 | −7.01 | −7.25 | >−4.00 | −4.66 | −7.38 | >−4.00 | −5.10 | >−4.00 | >−4.00 | −7.78 | −7.07 | −7.42 | −7.77 | >−4.00 | −6.60 | −6.34 | >−4.00 | >−4.00 | Log10LC50 (K-562): >−4.00; Log10GI50 (SNB-75): −7.66; Log10LC50 (SNB-75): −5.88; Log10TGI50 (SNB-75): −7.29; Log10GI50 (NCI-H226): −7.73; Log10LC50 (NCI-H226): −7.07; Log10TGI50 (NCI-H226): −7.40; Log10GI50 (UO-31): −5.70; Log10LC50 (UO-31): >−4.00; Log10TGI50 (UO-31): −4.86; Log10GI50 (SK-MEL-5): −7.55; Log10LC50 (SK-MEL-5): −6.30; Log10TGI50 (SK-MEL-5): −6.97; Log10GI50 (OVCAR-5): −7.39; Log10LC50 (OVCAR-5): >−4.00; Log10TGI50 (OVCAR-5): −6.31; Log10GI50 (KM12): −7.76; Log10LC50 (KM12): −7.10; Log10TGI50 (KM12): −7.43 |
